One molecule from patent US10640463B2, “Chlorhexidine crystal forms and uses thereof in medicine” (Queen Mary University of London, priority 2016, dated 2020) can be followed below.

The subject of series [1] is L929 cells. In words: Cell proliferation assay (total DNA content, Hoechst 33258). It counts as cell-based, mouse. Here is the method: To determine any increase in cell numbers over time following chlorhexidine spheres treatment, a cell proliferation assay was performed by analysing the total DNA content using a fluorimetric plate reader based assay (Hoechst dye, R. Rago analytical biochemistry, 1990, 191: 31-34). Briefly, the 96 well plates were collected at 24 and 48 hour time points, washed twice with PBS and stored at −20° C. The cells were thawed to room temperature and 100 μl distilled water was added to each well, incubated for another hour and refrozen to suspend DNA. After 24 hrs, cells were thawed again and 100 μl of the fluorochrome Hoechst 33258 (Sigma-Aldrich, UK) at the concentration 20 μg/ml in THE buffer (2M NaCl) was added to each well. The intensity of the fluorescence was then read at A 350 nm excitation and A 460 nm emissions.

In series [2] the test system is L929 cells. In words: Cytotoxicity assay (MTT). Particulars: for relative cellular viability: 0.001% chlorhexidine spheres.
Description: 0.5% chlorhexidine spheres stock solution was used to prepare fresh successive dilutions in sterile deionised water to obtain the final concentrations ranging from 0.0005 to 0.25%. For controls (untreated cultures), sterile deionised water was used. 25 μl of each treatment were added into respective wells to achieve final concentrations ranging from 0.00005-0.025%.
L929 cells, a mouse fibroblast-like cell line (ECACC 85011425) were cultured in Dulbecco's Modified Eagle's Medium (DMEM; Lonza, UK) supplemented with 10% fetal bovine serum (FBS) with 100 IU/mL penicillin, 100 μg/mL streptomycin and 2 mmol/L glutamine (all from Invitrogen, UK) in an humidified incubator with 10% CO2 and 95% air at 37° C.
Cell metabolic activity was evaluated by measuring the mitochondrial activity using a method commonly known as a methyl-tetrazolium (MTT) assay. MTT assay was carried out according to the protocols outlined in ISO 1 0993-5:2009 (Biological evaluation of medical devices—Part 5: Tests for in vitro cytotoxicity).
Trypsinisation was performed by routine methods and cell suspension was counted using a haemocytometer and seeded in 96-well microtiter plates at a concentration of 10,000 cells per well. The cells were then left overnight in the incubator to adhere to the wells. Following overnight incubation, medium was removed and cells were washed twice with PBS. The cells were then treated with different concentrations of chlorhexidine spheres (0.00005-0.025%) for 24 and 48 hours. Following treatment, culture medium containing chlorhexidine spheres was removed and 50 μL of 5 mg/mL tetrazolium salt MTT (Sigma-Aldrich, Gillingham, UK) was added to each well and incubated in 37 C for 4 h. Formazan crystals generated by mitochondrial enzyme activity were dissolved by 100 μl of isopropanol and the intensity of purple coloured reaction product quantified by measuring the absorbance spectra at 570 nm. A cell viability level below 70% of control (no treatment) was regarded as the toxic concentration according to the ISO protocol.
Series [3] is described as follows: Chlorhexidine release from electrospun PLA fibres at different temperatures. The class given is physicochemical. The note with it: 5% in electrospun PLA fibres, deionized water, after 120 h. Here is the method:
Electrospinning was utilized to fabricate spherical chlorhexidine chloride compound doped polylactic acid (PLA) fibres. Polylactic acid (Nature works, 2002D) was dissolved in a mixed solvent of chloroform and acetone (3:1 by volume) at 7 wt %. Spherical chlorhexidine chloride compounds were added at 5% weight to the PLA and mixed using a Rotomix. Electrospinning was carried out at room temperature (25° C.), with a pumping rate set at 1 ml/h, working distance at 15 cm, and voltage at 18 kv. Electrospun PLA fibres were collected on a foil. For the chlorhexidine release test, the fibres were weighed (Salter ANDER-180A weighing scale, UK) and divided into cuvettes, and each sample was 25 mg (n=5). Deionized water was added to each cuvette and fibres were kept immersed. Three groups of chlorhexidine chloride compound doped fibres were tested at different temperatures (25, 37 and 60° C.). At each time point (1, 3, 5, 10, 20, 30, 45, 72, 96, 120 h), the solutions were collected for the UV absorption test (Lambda 35, Perkin Elmer, USA) and replaced with fresh deionized water as in Example 6.

Series [4] is described as follows: Chlorhexidine release from HEMA-UDMA resin discs, with or without ultrasound. The class given is physicochemical. Here is the method: HEMA-UDMA resin was prepared by mixing 64% urethane dimethacrylate (UDMA) (Esschem UK, Lot: 591-22) and 36% hydroxyethyl methacrylate (HEMA) (Aldrich, 128635, Lot: STBC7495V), 0.08% of N,N-dimethyl-P-toluidine (Acros Organics, Lot: A0207283001) and 0.05% dimethylamino ethyl methacrylate (Aldrich, 234907, Lot: BCBF8391V) were added. The mixture was then stirred for 15 min (800 rpm, VWR Stirrer, USA). Finally, camphorquinone (Aldrich, 12, 489-3, Lot: 2338141) was added at the proportion of 0.1%. The mixture was stirred for another 15 min (VWR Stirrer, USA), and then the viscous liquid resin was prepared. Freeze dried chlorhexidine chloride compounds produced in Example 2 (precipitated with 0.33 M CaCl2) were weighed and incorporated within the resin at a loading level of 5% by weight. To explore the effect of different morphology on the release kinetics, chlorhexidine compounds with spherical, needle and flake morphology (from Example 1, FIG. 1, panels (b) and (c)) were incorporated into the resin. Incorporation of the chlorhexidine compounds within the resin was carried out by rotating the mixture contained in a 1 ml tube for 15 s in a Rotomix (120V/60 Hz, 2850 rotations/min) (ESPE RotoMix, USA). Chlorhexidine diacetate was also incorporated in the prepared resin in the same way, with loading rates of 5%, 10% and 15% (weight %). The filled resin was then placed into a Teflon mould (10 mm in diameter ×2 mm thick) and cured through a Mylar film with a curing light (Bluedent LED pen, Bulgaria) (430-490 nm, 600 mW/sq·cm) for 30 s. Then the discs were next weighed on a microbalance (Salter Ander-180A weighing scale, UK), and chlorhexidine content in each disc was calculated.
For the release study, all sample resin discs (HEMA-UDMA) containing chlorhexidine chloride compounds or chlorhexidine diacetate powder prepared in Example 5 were kept in cuvettes containing 3 ml deionized water, and kept at room temperature. And at each time point, solutions were collected for UV absorption tests (Lambda 35, Perkin Elmer, USA) and replaced with fresh deionized water.
For the chlorhexidine chloride compound doped discs (Example 5) chlorhexidine content was fixed at 5%, and ultrasound was exerted. Four groups (five discs in each group) were repetitively treated with ultrasound for 0 s, 10 s, 20 s, 30 s, accordingly, by contacting the ultrasound probe (Piezon Master 400, Swiss, 60 Hz, 45VA) on the disc surface at time points of 1 h, 3 h, 5 h, 15 h, 25 h, 40 h, 65 h, 95 h, 140 h, 205 h. After that, no ultrasound was carried out for all the groups, but release was carried on until the 650 hour time point. The UDMA-HEMA discs containing needle and flake chlorhexidine compounds and chlorhexidine diacetate (FIG. 1, panels (b) and (c), and FIG. 3, panel (g)) were also tested (UV absorption tests) at the same time points (same sample numbers) but without ultrasound treatment. For the chlorhexidine diacetate powder doped discs chlorhexidine content of 5%, 10% and 15% were also analysed, and no ultrasound treatment was carried out.

Series [5] is described as follows: Thermo-gravimetric analysis (TGA). The note with it: TGA at 10° C./min in nitrogen, 50-800° C. It counts as physicochemical. Here is the method:
The chlorhexidine chloride spheres (0.33M CaCl2 group) were analysed by Thermo-gravimetric analysis (TGA Q50, USA). Chlorhexidine diacetate crystals and CaCl2 powder (Sigma-Aldrich, C8106, Lot: SLBF7416V) were tested as comparisons. TGA was carried out at 10° C./min in a nitrogen atmosphere, over a temperature range of 50-800° C. The chlorhexidine proportion was further confirmed by the TGA result. […] The decomposition temperature of the chlorhexidine chloride spheres (210° C.) was higher than the chlorhexidine diacetate crystals (120° C.).

With `Cl.Cl.N=C(NCCCCCCNC(=N)NC(=N)Nc1ccc(Cl)cc1)NC(=N)Nc1ccc(Cl)cc1` [chlorhexidine spheres], the “effect on L929 cell proliferation (in words)” value in the series with L929 cells [1] (0.00005% to 0.00025%, 24 and 48 hour treatment) is “induces proliferation”; in the series on L929 cells [1] (0.0005%, 24 hour treatment), “no proliferation”. Also, the “concentrations profoundly reducing cell proliferation” value in the series with L929 cells [1] (L929 cells) was > 0.0005%. For the same molecule, the “concentrations significantly inhibiting proliferation” value in the series with L929 cells [1] (L929 cells) was ≥ 0.001%. The cellular viability entry is on record as “approximately 90%” in the series with L929 cells [2] (0.00005% to 0.00025%, both 24 and 48 hours); > 80% with L929 cells [2] (0.0005%, 24 hours); “below 70%” in the series on L929 cells [2] (0.0005%, 48 hours). Moreover, the relative cellular viability entry in the series on L929 cells [2] (24 hours) was “approximately 50%”; in the series with L929 cells [2] (48 hours) it was 20%. For the same molecule, in the series on L929 cells [2] (L929 cells, viability below 70% of control regarded as toxic), the concentrations demonstrating cytotoxicity result is listed as “above 0.0005%”. The chlorhexidine dissolved is given as 65.8% in series [3] (25° C.), 79.7% in series [3] (37° C.) and 89.6% in series [3] (60° C.). The chlorhexidine release in series [4] (5% loading, control group without ultrasound (0 s), by 205 hours) is on record as 1.2%; in series [4] (5% loading, ultrasound 10 s at each time point, by 205 hours), 4.6%; in series [4] (5% loading, ultrasound 20 s at each time point, by 205 hours), 10.1%; in series [4] (5% loading, ultrasound 30 s at each time point, by 205 hours) it was 14.9%; in series [4] (no ultrasound, after 650 hours), ~2.7%. Further, in series [4] (5% loading, deionized water, room temperature, no ultrasound, within 65 hours), the “chlorhexidine released by weight” value turned out to be 0.76%. The decomposition temperature in series [5] worked out at 210 °C.
